# Experimental data reported in article PMC4319531 (Bioorganic & medicinal chemistry letters, 2014).
# Tests used:
# [1] = microsomes
# [2] = Metabolic stability in human liver microsomes; settings: both, pooled human liver microsomes, pH 7.4
# [3] = Metabolic stability in human intestinal microsomes; settings: both, pooled human intestinal microsomes, pH 7.4
# recombinant CE-2 = target: T1, recombinant CE-2 (Homo sapiens, UniProt O00748); test: Incubation with purified recombinant CE-2; assay type: in vitro ADME; settings: 10 μM, within 60 minutes at room temperature
# T1 sequence (O00748 27-559): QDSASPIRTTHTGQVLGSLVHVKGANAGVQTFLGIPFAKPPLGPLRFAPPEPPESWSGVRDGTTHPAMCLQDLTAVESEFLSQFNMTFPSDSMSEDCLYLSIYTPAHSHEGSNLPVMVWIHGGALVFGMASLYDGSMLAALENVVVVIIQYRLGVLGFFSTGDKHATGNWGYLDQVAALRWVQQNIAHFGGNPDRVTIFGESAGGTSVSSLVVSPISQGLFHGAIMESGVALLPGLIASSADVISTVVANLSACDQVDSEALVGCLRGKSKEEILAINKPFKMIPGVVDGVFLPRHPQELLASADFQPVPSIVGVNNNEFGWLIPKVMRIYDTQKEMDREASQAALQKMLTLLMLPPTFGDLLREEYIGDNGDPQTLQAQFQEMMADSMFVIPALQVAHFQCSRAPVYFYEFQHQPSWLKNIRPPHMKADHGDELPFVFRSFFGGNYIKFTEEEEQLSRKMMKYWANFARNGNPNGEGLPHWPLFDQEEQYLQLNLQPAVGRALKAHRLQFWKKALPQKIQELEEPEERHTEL
# recombinant CE-1 = target: T2, recombinant CE-1 (Homo sapiens, UniProt P23141); test: Incubation with purified recombinant CE-1; assay type: in vitro ADME; settings: 10 μM, within 60 minutes at room temperature
# T2 sequence (P23141 18-567): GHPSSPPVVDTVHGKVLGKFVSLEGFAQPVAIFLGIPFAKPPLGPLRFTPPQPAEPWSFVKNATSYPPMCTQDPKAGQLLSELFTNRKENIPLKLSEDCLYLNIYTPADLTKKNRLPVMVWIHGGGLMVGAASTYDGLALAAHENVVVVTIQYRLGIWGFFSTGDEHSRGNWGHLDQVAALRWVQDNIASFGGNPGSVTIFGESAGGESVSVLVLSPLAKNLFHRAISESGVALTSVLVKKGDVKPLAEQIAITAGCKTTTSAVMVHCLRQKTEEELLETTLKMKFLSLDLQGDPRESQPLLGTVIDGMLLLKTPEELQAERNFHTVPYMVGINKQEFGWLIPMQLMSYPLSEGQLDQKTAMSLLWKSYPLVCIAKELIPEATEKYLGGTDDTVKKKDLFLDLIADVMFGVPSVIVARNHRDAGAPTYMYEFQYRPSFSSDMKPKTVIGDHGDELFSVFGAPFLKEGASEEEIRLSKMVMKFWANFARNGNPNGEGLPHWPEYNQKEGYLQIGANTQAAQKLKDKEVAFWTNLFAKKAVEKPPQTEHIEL
Compound,microsomal CLint at 1 μM [3],sensitivity to hydrolysis by recombinant CE-2 (recombinant CE-2),sensitivity to hydrolysis by recombinant CE-1 (recombinant CE-1),further results
2-(4-(4((benzyl(2methyl3(methylsulfonamido)phenyl)amino)methyl)phenoxy)phenoxy)ethyl 2-isobutyl-5-((methoxycarbonyl)amino)pentanoate [Compound 8b],–,–,–,"CLint, in vitro HIM (microsomes): 0.22 mL/min/mg; half life (t1/2, min) HIM (pH 7.4): 6.3 min; half life (t1/2, min) HLM ([1]; human, pH 7.4): 17 min; CLint, in vitro HLM [1]: 0.082 mL/min/mg"
C#CCC(CCCNC(=O)OC)C(=O)Oc1ccc(Oc2ccc(CN(Cc3ccccc3)c3cccc(NS(C)(=O)=O)c3C)cc2)cc1 (stereo not drawn) [Compound 8c],1700 µL/min/mg,–,–,–
COC(=O)NCCCC(Cc1ccccc1)C(=O)Oc1ccc(Oc2ccc(CN(Cc3ccccc3)c3cccc(NS(C)(=O)=O)c3C)cc2)cc1 (stereo not drawn) [Compound 8d],140 µL/min/mg,–,–,–
COC(=O)NCCCC(C)(Cc1ccccc1)C(=O)Oc1ccc(Oc2ccc(CN(Cc3ccccc3)c3cccc(NS(C)(=O)=O)c3C)cc2)cc1 (stereo not drawn) [Compound 8f],43 µL/min/mg,moderate to extensive hydrolysis,completely resistant,–

# Continued, in another order:
microsomal CLint at 1 μM [3],sensitivity to hydrolysis by recombinant CE-2 (recombinant CE-2),sensitivity to hydrolysis by recombinant CE-1 (recombinant CE-1),Compound,further results
2600 µL/min/mg,–,–,"COC(=O)NCCCC(C)C(=O)Oc1ccc(Oc2ccc(CN(Cc3ccccc3)c3cccc(NS(C)(=O)=O)c3C)cc2)cc1 (stereo not drawn) [Compound 8a, 4-(4-((benzyl(2-methyl-3-(methylsulfonamido)phenyl)amino)methyl)phenoxy)phenyl 5-((methoxycarbonyl)amino)-2-methylpentanoate]",microsomal CLint at 1 μM [2]: 1000 µL/min/mg
1000 µL/min/mg,–,–,"COC(=O)NCCCC(C)(C)C(=O)Oc1ccc(Oc2ccc(CN(Cc3ccccc3)c3cccc(NS(C)(=O)=O)c3C)cc2)cc1 [Compound 8e, 4-(4-((benzyl(2-methyl-3-(methylsulfonamido)phenyl)amino)methyl)phenoxy)phenyl 5-((methoxycarbonyl)amino)-2,2-dimethylpentanoate]",–
480 µL/min/mg,moderate to extensive hydrolysis,completely resistant,"COC(=O)NCCCC(Cc1cn(Cc2ccccc2)nn1)C(=O)Oc1ccc(Oc2ccc(CN(Cc3ccccc3)c3cccc(NS(C)(=O)=O)c3C)cc2)cc1 (stereo not drawn) [Compound 8g, 4-(4-((benzyl(2-methyl-3-(methylsulfonamido)phenyl)amino)methyl)phenoxy)phenyl 2-((1-benzyl-1H-1,2,3-triazol-4-yl)methyl)-5-((methoxycarbonyl)amino)pentanoate]",microsomal CLint at 1 μM [2]: 140 µL/min/mg
1900 µL/min/mg,moderate to extensive hydrolysis,completely resistant,C#CCC(CCCNC(=O)OC)C(=O)OCCOc1ccc(Oc2ccc(CN(Cc3ccccc3)c3cccc(NS(C)(=O)=O)c3C)cc2)cc1 (stereo not drawn) [Compound 9c],–
–,moderate to extensive hydrolysis,completely resistant,COC(=O)NCCCC(Cc1cn(Cc2ccccc2)nn1)C(=O)OCCOc1ccc(Oc2ccc(CN(Cc3ccccc3)c3cccc(NS(C)(=O)=O)c3C)cc2)cc1 (stereo not drawn) [Compound 9g],–
